Reference: publication PMC7924852, “The Emericellipsins A–E from an Alkalophilic Fungus Emericellopsis alkalina Show Potent Activity against Multidrug-Resistant Pathogenic Fungi” (Journal of Fungi, 2021)
≈ marks a conversion by molar mass, not a printed value. Where two headings read alike, the source gives them in different places. Starred links: 1 amine or outer side, 2 acyl side, 3 side chain; linkers in the order of their positions; H or OH if unused. Positions of bridges follow the written chain, without caps; N, C: chain ends. Non-standard residues stand in square brackets, D forms with d. Residues, ends and D or L forms follow the SMILES beside them. *: point of attachment. hTyr(3S-OH,4S-OH,3'-OSO3H) = N[C@H](C(=O)O)[C@H](O)[C@@H](O)c1ccc(O)c(OS(=O)(=O)O)c1; Orn(4R-OH,5R-OH) = O=C([C@H](C[C@@H](O)[C@@H](O)N[*:3])N[*:1])[*:2]; Pro(3S-OH,4S-Me) = C[C@H]1CN[C@H](C(=O)O)[C@H]1O; X1 = CCCCCOc1ccc(-c2cc(-c3ccc(C(=O)*)cc3)no2)cc1; Gln(3R-OH) = NC(=O)C[C@@H](O)[C@H](N)C(=O)O; Hyp = O=C(O)[C@@H]1C[C@@H](O)CN1

Assays:
C. krusei 1447 = test: Sensititre YeastOne antifungal susceptibility test; type: cell-based; settings: Pichia kudriavzevii
C. glabrata 1402 = test: Sensititre YeastOne antifungal susceptibility test; type: cell-based; settings: Nakaseomyces glabratus
Candida albicans 1402 = test: Sensititre YeastOne antifungal susceptibility test; type: cell-based
C. parapsilosis 571 = test: Sensititre YeastOne antifungal susceptibility test; type: cell-based; settings: Lodderomyces parapsilosis
A. fumigatus 390m = test: Sensititre YeastOne antifungal susceptibility test; type: cell-based; settings: Aspergillus fumigatus
C. tropicalis 156 = test: Sensititre YeastOne antifungal susceptibility test; type: cell-based; settings: Candida tropicalis
A. terreus 497 [1] = test: Sensititre YeastOne antifungal susceptibility test; type: cell-based; settings: Aspergillus terreus
[2] = test system: Cryptococcus neoformans 297; test: Sensititre YeastOne antifungal susceptibility test; type: cell-based
Aspergillus niger 1133m = test: Sensititre YeastOne antifungal susceptibility test; type: cell-based
Cr. laurentii 325m = test: Sensititre YeastOne antifungal susceptibility test; type: cell-based; settings: Papiliotrema laurentii
A. niger 1133 m [3] = test: Broth two-fold microdilution MIC (CLSI); type: cell-based, Aspergillus niger; settings: A. niger 1133 m clinical isolate; RPMI 1640 pH 7.0, 35 °C, 48 h
A. fumigatus VKM F-37 [4] = test: Disc-diffusion antifungal assay; type: cell-based, Aspergillus fumigatus; settings: 40 µg/disc
A. niger 1133 m [5] = test: Disc-diffusion antifungal assay; type: cell-based, Aspergillus niger; settings: 40 µg/disc, pathogenic clinical isolate
[6] = test system: reference and clinical strains of Aspergillus; test: Disc-diffusion antifungal assay, Aspergillus strains; type: cell-based; settings: disc-diffusion, reference and clinical strains of Aspergillus
A. niger ATCC 16404 = test: Broth two-fold microdilution MIC (CLSI); type: cell-based, Aspergillus niger; settings: A. niger ATCC 16404; RPMI 1640 pH 7.0, 35 °C, 48 h, no visible growth
A. terreus 497 [7] = test: Disc-diffusion antifungal assay; type: cell-based; settings: 40 µg/disc; A. terreus 497, pathogenic clinical isolate
A. fumigatus VKM F-37 [8] = test: Broth two-fold microdilution MIC (CLSI); type: cell-based, Aspergillus fumigatus; settings: A. fumigatus VKM F-37; RPMI 1640 pH 7.0, 35 °C, 48 h
A. terreus 497 [9] = test: Broth two-fold microdilution MIC (CLSI); type: cell-based; settings: A. terreus 497 clinical isolate; RPMI 1640 pH 7.0, 35 °C, 48 h
A. fumigatus 390 m [10] = test: Broth two-fold microdilution MIC (CLSI); type: cell-based, Aspergillus fumigatus; settings: A. fumigatus 390 m clinical isolate; RPMI 1640 pH 7.0, 35 °C, 48 h
A. fumigatus 390 m [11] = test: Disc-diffusion antifungal assay; type: cell-based, Aspergillus fumigatus; settings: 40 µg/disc, pathogenic clinical isolate
A. terreus 3 K [12] = test: Disc-diffusion antifungal assay; type: cell-based; settings: 40 µg/disc
[13] = test system: Aspergillus niger ATCC 16404; test: Disc-diffusion antifungal assay; type: cell-based; settings: 40 µg/disc; A. niger ATCC 16404
A. terreus 3 K [14] = test: Broth two-fold microdilution MIC (CLSI); type: cell-based; settings: A. terreus 3 K; RPMI 1640 pH 7.0, 35 °C, 48 h
[15] = Sensititre YeastOne, C. krusei 1447 clinical isolate, read-out: MIC
[16] = Sensititre YeastOne, C. glabrata 1402 clinical isolate, read-out: MIC
[17] = Sensititre YeastOne, Candida albicans 1402 clinical isolate, read-out: MIC
[18] = Sensititre YeastOne, C. parapsilosis 571 clinical isolate, read-out: MIC
[19] = Sensititre YeastOne, A. fumigatus 390m clinical isolate, read-out: MIC
[20] = Sensititre YeastOne, C. tropicalis 156 clinical isolate, read-out: MIC
[21] = Sensititre YeastOne, A. terreus 497 clinical isolate, read-out: MIC
[22] = Sensititre YeastOne, Cryptococcus neoformans 297 clinical isolate, read-out: MIC
[23] = Sensititre YeastOne, Aspergillus niger 1133m clinical isolate, read-out: MIC
[24] = Sensititre YeastOne, Cr. laurentii 325m clinical isolate, read-out: MIC

CC(=O)N1CCN(c2ccc(OCC3COC(Cn4ccnc4)(c4ccc(Cl)cc4Cl)O3)cc2)CC1 (centres unmarked) [KZ, ketoconazole]
MIC (C. krusei 1447; 1447): 0.5 µg/mL (≈ 0.941 µM)
MIC (C. glabrata 1402; 1402): 4 µg/mL (≈ 7.53 µM)
MIC (Candida albicans 1402; Candida albicans, 1402): 4 µg/mL (≈ 7.53 µM)
MIC (C. parapsilosis 571; 571): 0.5 µg/mL (≈ 0.941 µM)
MIC (A. fumigatus 390m; 390M): 8 µg/mL (≈ 15.1 µM)
MIC (C. tropicalis 156; 156): 0.5 µg/mL (≈ 0.941 µM)
MIC (A. terreus 497 [1]; 497): 8 µg/mL (≈ 15.1 µM)
MIC ([2]; Cryptococcus neoformans, 297): 0.06 µg/mL (≈ 0.113 µM)
MIC (Aspergillus niger 1133m; Aspergillus niger, 1133M): 16 µg/mL (≈ 30.1 µM)
MIC (Cr. laurentii 325m; 325M): 0.12 µg/mL (≈ 0.226 µM)

CCCCCOc1ccc(-c2cc(-c3ccc(C(=O)N[C@H]4C[C@@H](O)[C@@H](O)NC(=O)[C@@H]5[C@@H](O)[C@@H](C)CN5C(=O)[C@H]([C@H](O)CC(N)=O)NC(=O)[C@H]([C@H](O)[C@@H](O)c5ccc(O)c(OS(=O)(=O)O)c5)NC(=O)[C@@H]5C[C@@H](O)CN5C(=O)[C@H]([C@@H](C)O)NC4=O)cc3)no2)cc1 [MF, micafungin] (X1-[Orn(4R-OH,5R-OH)]T[Hyp][hTyr(3S-OH,4S-OH,3'-OSO3H)][Gln(3R-OH)][Pro(3S-OH,4S-Me)]; lactam 1-C)
MIC (C. krusei 1447; 1447): 0.12 µg/mL (≈ 0.0945 µM)
MIC (C. glabrata 1402; 1402): 0.015 µg/mL (≈ 0.0118 µM)
MIC (Candida albicans 1402; Candida albicans, 1402): 0.03 µg/mL (≈ 0.0236 µM)
MIC (C. parapsilosis 571; 571): 1 µg/mL (≈ 0.787 µM)
MIC (A. fumigatus 390m; 390M): > 8 µg/mL
MIC (C. tropicalis 156; 156): 0.03 µg/mL (≈ 0.0236 µM)
MIC (A. terreus 497 [1]; 497): > 8 µg/mL
MIC ([2]; Cryptococcus neoformans, 297): > 8 µg/mL
MIC (Aspergillus niger 1133m; Aspergillus niger, 1133M): > 8 µg/mL
MIC (Cr. laurentii 325m; 325M): > 8 µg/mL

CC[C@@H]([C@H](C)O)n1ncn(-c2ccc(N3CCN(c4ccc(OC[C@@H]5CO[C@@](Cn6cncn6)(c6ccc(F)cc6F)C5)cc4)CC3)cc2)c1=O [PZ, posaconazole]
MIC (C. krusei 1447; [15]): 0.5 µg/mL (≈ 0.713 µM)
MIC (C. glabrata 1402; [16]): > 8 µg/mL
MIC (Candida albicans 1402; [17]): 0.5 µg/mL (≈ 0.713 µM)
MIC (C. parapsilosis 571; [18]): 1 µg/mL (≈ 1.43 µM)
MIC (A. fumigatus 390m; [19]): 0.25 µg/mL (≈ 0.357 µM)
MIC (C. tropicalis 156; [20]): > 8 µg/mL
MIC (A. terreus 497 [1]; [21]): 0.12 µg/mL (≈ 0.171 µM)
MIC [2, 22]: 0.25 µg/mL (≈ 0.357 µM)
MIC (Aspergillus niger 1133m; [23]): 0.5 µg/mL (≈ 0.713 µM)
MIC (Cr. laurentii 325m; [24]): 1 µg/mL (≈ 1.43 µM)

C[C@@H](c1ncncc1F)[C@](O)(Cn1cncn1)c1ccc(F)cc1F [VOR, voriconazole]
MIC (C. krusei 1447; [15]): 1 µg/mL (≈ 2.86 µM)
MIC (C. glabrata 1402; [16]): 8 µg/mL (≈ 22.9 µM)
MIC (Candida albicans 1402; [17]): 1 µg/mL (≈ 2.86 µM)
MIC (C. parapsilosis 571; [18]): 1 µg/mL (≈ 2.86 µM)
MIC (A. fumigatus 390m; [19]): 0.5 µg/mL (≈ 1.43 µM)
MIC (C. tropicalis 156; [20]): 4 µg/mL (≈ 11.5 µM)
MIC (A. terreus 497 [1]; [21]): 0.25 µg/mL (≈ 0.716 µM)
MIC [2, 22]: 0.25 µg/mL (≈ 0.716 µM)
MIC (Aspergillus niger 1133m; [23]): 8 µg/mL (≈ 22.9 µM)
MIC (Cr. laurentii 325m; [24]): 0.5 µg/mL (≈ 1.43 µM)

Methyldecanoyl-MePro-AHMOD-Ser-Aib-Ile-Iva-βAla-Alaol-Glyol [EmiC, emericellipsin C, homologue of emericellipsin A, nonribosomal peptaibol]
Minimal Inhibitory Concentration (MIC) (A. niger 1133 m [3]): 32 µg/mL
Zone of Inhibition (A. fumigatus VKM F-37 [4]): 0 mm
Zone of Inhibition (A. niger 1133 m [5]): 0 mm
antifungal activity against Aspergillus strains (in words) [6]: low activity only against A. niger strains
Minimal Inhibitory Concentration (MIC) (A. niger ATCC 16404): 32 µg/mL
Zone of Inhibition (A. terreus 497 [7]): 0 mm
Minimal Inhibitory Concentration (MIC) (A. fumigatus VKM F-37 [8]): 16 µg/mL
Minimal Inhibitory Concentration (MIC) (A. terreus 497 [9]): 8 µg/mL
Minimal Inhibitory Concentration (MIC) (A. fumigatus 390 m [10]): 16 µg/mL
Zone of Inhibition (A. fumigatus 390 m [11]): 0 mm
Zone of Inhibition (A. terreus 3 K [12]): 0 mm
Zone of Inhibition [13]: 9 ± 0.31 mm
Minimal Inhibitory Concentration (MIC) (A. terreus 3 K [14]): 8 µg/mL
